Data on 18 compounds can be found in PubChem BioAssay (NCI).

What all share (assay): NCI-60 cell line screen, 48 h
In assay [1] the test system is A498 renal.
The subject of assay [2] is HCC-2998 colon.
The subject of assay [3] is HT29 colon.
Assay [4] deals with NCI-H226 lung.
Assay [5] deals with NCI-H460 lung.
The test system of assay [6] is OVCAR-3 ovarian.
Assay [7] concerns SF-268 CNS.
Assay [8] concerns SNB-19 CNS.
Assay [9] concerns SR leukemia.
Assay [10] deals with TK-10 renal.
In assay [11] the test system is HCT-15 colon.

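A five-concentration, 48-hour dose response in 96-well plates underlies each endpoint, interpolated linearly between surrounding concentrations. GI50 marks 50% less growth. TGI is the concentration that stops growth completely.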

On to `O=c1oc2ccccc2n1P(=O)(n1c(=O)oc2ccccc21)n1c(=O)oc2ccccc21`, for which the TGI in [1], in [2], in assay [3], in [4], in assay [5] and in [6] was > 100 µM throughout. In addition, the TGI in assay [7], in assay [8], in [9] and in assay [10] was > 100 µM throughout.
For the compound `CS/C(C#N)=C(\C#N)SC`, the TGI in assay [1] is 47.7 µM; in assay [2] it was 20.9 µM; in assay [11], 5.95 µM; in assay [3] it was 64.2 µM; in assay [4] it was 5.92 µM; in [5], 81.4 µM. Besides, the TGI in assay [6] was 4.88 µM; in assay [7], 58 µM; in [8] it was 65.9 µM; in assay [9] it was 5.43 µM; in assay [10], 20.7 µM.
`CC(C)OC(=O)Nc1cccc(Cl)c1`: the TGI in assay [2], in assay [11], in [3], in assay [4], in assay [5] and in assay [6] was > 100 µM in each case. Moreover, the TGI in assay [7], in assay [8], in assay [9] and in [10] was > 100 µM each time.
For `CN(C)CC1CCCC(CN2CCCCC2)C1=O` (stereo unspecified), the TGI in assay [1] was > 71.3 µM; in assay [2], 33.4 µM; in assay [11] it was 27.9 µM; in assay [3], 25.1 µM; in assay [4], 43.1 µM; in assay [5], > 68.6 µM. Besides, the TGI was 17.1 µM in assay [6]; 40.2 µM in assay [7]; > 100 µM in assay [8]; > 100 µM in [9]; 21.3 µM in assay [10].
Regarding `[O-]c1c[n+](CCCC[n+]2cc([O-])on2)no1`, the TGI in assay [1], in assay [2], in [11], in assay [3], in assay [5] and in [6] was > 100 µM each time. Also, the TGI in assay [7], in assay [8] and in [10] was > 100 µM in each case.
Take `Cc1cccc(O)c1-c1nnc(CCCCCCCCc2nnc(-c3c(C)cccc3O)n2N)n1N`: the TGI in assay [1], in [2], in assay [11], in [3], in assay [4] and in assay [5] was > 100 µM each time. Besides, the TGI in [6] was > 100 µM; in assay [7] it was > 100 µM; in assay [8], > 100 µM; in [9], > 52.5 µM; in [10] it was > 59 µM.
As for `Cc1ccc(S(=O)(=O)N2c3ccccc3[C@H]3CCc4c([nH]c5ccccc45)[C@H]32)cc1`, the TGI in assay [2], in assay [3], in [4], in assay [5], in [6] and in assay [7] was > 100 µM each time. Also, the TGI in [8] and in assay [10] was > 100 µM throughout.
Take `C[C@H]1C(=O)O[C@@H]1[C@H]1COC(C)(C)O1`: the TGI in assay [1], in assay [2], in assay [11], in assay [4], in assay [5] and in assay [6] was > 100 µM throughout. The TGI in [7], in assay [8], in assay [9] and in [10] was > 100 µM throughout.
`CC(N)C(=O)OCN1C(=O)C2C3C=CC(C2C1=O)C1C2C(=O)N(COC(=O)C(C)N)C(=O)C2C31` (stereo unspecified): the TGI was 97.9 µM in assay [2]; 37.9 µM in [11]; > 100 µM in assay [3]; > 100 µM in assay [4]; 34.3 µM in assay [5]; 91.5 µM in [6]. Further, the TGI in assay [7] was 47.9 µM; in [8], > 100 µM; in assay [9], 29.3 µM; in [10], > 100 µM.
For the compound `CO[C@H]1ON=C(c2c(C)cc(C)cc2C)[C@@H]1C1(c2ccccc2)ON=C(c2c(C)cc(C)cc2C)O1` (stereo partly specified), the TGI in assay [2], in assay [5], in [7], in [8], in assay [9] and in [10] was > 100 µM each time.
Turning to `Cc1ccccc1[P+](C)(c1ccccc1C)c1ccccc1C`, the TGI in [1] was 49.9 µM; in assay [2] it was 12.6 µM; in assay [11] it was 48.2 µM; in assay [3], 19.1 µM; in assay [4], 35.7 µM; in assay [5], > 100 µM. Also, the TGI in assay [6] is 23.6 µM; in assay [7], > 100 µM; in [8], 37.4 µM; in assay [10] it was 36.8 µM.
As for `Nc1nc(Cl)cc(NCCCNc2cc(Cl)nc(N)n2)n1`, the TGI in [1], in [2], in assay [11], in assay [3], in assay [4] and in [5] was > 100 µM in each case. Further, the TGI in assay [6], in [7], in [9] and in [10] was > 100 µM throughout.
Regarding `COC(=O)C(=O)C(C(=O)C1=NS(=O)(=O)c2cc(S(N)(=O)=O)c(Cl)cc2N1)c1nc2ccc(C(=O)c3ccccc3)cc2[nH]c1=O` (stereo unspecified), the TGI in assay [1], in assay [2], in [11], in assay [3], in assay [4] and in assay [5] was > 100 µM each time. The TGI in assay [7], in assay [8], in assay [9] and in assay [10] was > 100 µM in each case.
In the case of `Cn1cc(-c2csc(-c3cn(C)c4ccc(Br)cc34)n2)c2cnccc21`, the GI50 is 1.78 µM in [1]; 1.9 µM in [2]; 1.75 µM in assay [11]; 1.6 µM in [3]; 1.87 µM in assay [5]; 1.89 µM in assay [6]. The figures for the GI50 in [7], in [8] and in [10] were 1.9 µM, 1.73 µM and 1.71 µM, respectively. For the same compound, the TGI in assay [1] came out at 3.67 µM; in assay [2] it was 3.57 µM; in assay [11], 3.25 µM; in [3] it was 3.09 µM; in assay [5] it was 3.47 µM; in assay [6], 3.49 µM. The values for the TGI in [7], in assay [8] and in assay [10] were 3.67 µM, 3.26 µM and 3.22 µM, respectively.
Consider `NC(=O)c1ccc(NS(=O)(=O)c2ccc(N)cc2)nc1`, for which the TGI in [1], in [2], in assay [11], in [3], in assay [4] and in [5] was > 100 µM throughout. The TGI in assay [6], in assay [7], in [8] and in assay [10] was > 100 µM in each case.
For the compound `CN1C(=O)CN2C(Cl)(Cl)C2(c2ccccc2F)c2cc([N+](=O)[O-])ccc21` (stereo unspecified), the TGI in [2] was 86 µM; in assay [11], > 100 µM; in assay [3], > 100 µM; in assay [4], 92.5 µM; in assay [5], > 100 µM; in assay [6], > 100 µM. The TGI in assay [7], in assay [9] and in assay [10] was > 100 µM throughout.
On to `C1CCC(OCc2nnn3c2CCC3)OC1` (stereo unspecified), for which the TGI in assay [2], in [11], in assay [3], in assay [5], in assay [6] and in [9] was > 100 µM throughout. Further, in [10], the TGI is > 100 µM.
With `c1ccc(CSC2(SCc3ccccc3)CCCC2)cc1`, the TGI in assay [1], in assay [2], in assay [11], in [3], in [4] and in [5] was > 10 µM throughout. For the same compound, the TGI in assay [6], in assay [7], in [8], in assay [9] and in assay [10] was > 10 µM in each case.
